Source: patent US11753445B2, “Therapeutic peptides” (COHBAR, INC., priority 2016, dated 2023)
Peptide text beside a SMILES is read from it.

Columns and labels:
[1] = tested on: 3T3-L1 Adipocytes; assay: Free fatty acid levels in cultured mouse 3T3-L1 adipocytes, isoproterenol stimulated (Example 2); format: cell-based; settings: test peptides 25 μM; isoproterenol 1 nM
Outline: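 Release of free fatty acids, read at 540 nm, was stimulated with 1 nM isoproterenol for 3 h in mouse 3T3-L1 adipocytes (12–17 days of differentiation). Cells were pre-exposed to 25 μM peptide for 18–20 h plus 1 h, with peptide kept in during stimulation. Values are background-subtracted and normalised to isoproterenol alone.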

[2] = Stability in mouse plasma, peptides 10 uM (Example 15); format: in vitro ADME; settings: mouse plasma 37° C., peptide 10 uM; for remaining at 0.25 h, 10 uM / remaining at 0.5 h, 10 uM / remaining at 1 h, 10 uM / remaining at 2 h, 10 uM / remaining at 3 h, 10 uM: pooled mouse plasma; for remaining at 0.25 h, 10 uM: 15 min, read-out: % Remaining at Each Time Point: 15 min; for remaining at 0.5 h, 10 uM: 30 min, read-out: % Remaining at Each Time Point: 30 min; for remaining at 1 h, 10 uM: 60 min, read-out: % Remaining at Each Time Point: 60 min; for remaining at 2 h, 10 uM: 120 min, read-out: % Remaining at Each Time Point: 120 min; for remaining at 3 h, 10 uM: 180 min, read-out: % Remaining at Each Time Point: 180 min
Method: Peptides (10 uM) were incubated in pooled mouse plasma at 37° C. and samples were removed and immediately analyzed for the concentration of intact peptide by LC/MS/MS over the course of 3 hours. The percent of peptide remaining in plasma at each time point was calculated relative to the initial peak area (Table 13).

% Remaining at Each Time Point: 0 min [2] [%]	remaining at 0.25 h, 10 uM [2] [%]	remaining at 0.5 h, 10 uM [2] [%]	remaining at 1 h, 10 uM [2] [%]	remaining at 2 h, 10 uM [2] [%]	remaining at 3 h, 10 uM [2] [%]	Compound	Free Fatty Acid Levels in 3T3-L1 Adipocytes Expressed as a Percent of Isoproterenol Control: Percent of Control Value [1] [%]
100	90	81.9	77.4	69.2	67	CC[C@H](C)[C@H](NC(=O)[C@H](Cc1ccc(O)cc1)NC(=O)[C@H](CC(N)=O)NC(=O)[C@H](CCSC)NC(=O)[C@H](CCC(=O)O)NC(=O)[C@H](CCC(N)=O)NC(=O)[C@H](Cc1c[nH]c2ccccc12)NC(=O)[C@H](CCCNC(=N)N)NC(=O)[C@@H](C)N)C(=O)N[C@@H](Cc1ccccc1)C(=O)N[C@@H](Cc1ccc(O)cc1)C(=O)N1CCC[C@H]1C(=O)N[C@@H](CCCNC(=N)N)C(=O)O [compound 288] (HELM PEPTIDE1{[dA].R.W.Q.E.M.N.Y.I.F.Y.P.R}$$$$V2.0)	93.0
100	82.9	74.6	78.4	77.2	75.6	CCCCCCCCCCCCCCCC(=O)N[C@@H](CCSC)C(=O)N[C@@H](CCCNC(=N)N)C(=O)N[C@@H](Cc1c[nH]c2ccccc12)C(=O)N[C@@H](CCC(N)=O)C(=O)N[C@@H](CCC(=O)O)C(=O)N[C@@H](CCSC)C(=O)N[C@@H](CC(N)=O)C(=O)N[C@@H](Cc1ccc(O)cc1)C(=O)N[C@H](C(=O)N[C@@H](Cc1ccccc1)C(=O)N[C@@H](Cc1ccc(O)cc1)C(=O)N1CCC[C@H]1C(=O)N[C@@H](CCCNC(=N)N)C(=O)O)[C@@H](C)CC [compound 289] (HELM PEPTIDE1{[CCCCCCCCCCCCCCCC(=O)[*:2]].M.R.W.Q.E.M.N.Y.I.F.Y.P.R}$$$$V2.0)	94.5
100	88.4	74.7	57.1	36.4	25.9	Ac-MRWQEMNYIFYPR-OH [compound 286]	94.8
–	–	–	–	–	–	H-MRWQEMGYIFYERKLR-OH [compound 178]	67.6
–	–	–	–	–	–	H-MRWQEMGYIFYP-OH [compound 48]	57.1
–	–	–	–	–	–	H-MRWQEMGYIFYPEKLR-OH [compound 179]	47.2
–	–	–	–	–	–	H-MRWQEMGYIFYPKKLR-OH [compound 123]	58.8
–	–	–	–	–	–	H-MRWQEMGYIFYPRELR-OH [compound 180]	47.0
–	–	–	–	–	–	H-MRWQEMGYIFYPRKER-OH [compound 181]	58.9
–	–	–	–	–	–	H-MRWQEMGYIFYPRKLE-OH [compound 182]	36.6
–	–	–	–	–	–	H-MRWQEMGYIFYPRKLK-OH [compound 124]	68.9
–	–	–	–	–	–	H-MRWQEMGYIFYPRRLR-OH [compound 125]	50.2
100	64	45.2	26.8	8.76	2.93	H-MRWQEMNYIFYP-NH2 [compound 287]	78.1
100	34.9	25.7	1.92	0.41	0.29	H-MRWQEMNYIFYP-OH [compound 282]	71.8
100	13.8	3.22	0.59	0.36	0.21	H-QEMGYIFYPRKL-OH [compound 270]	66.9
100	79.4	68.8	53.1	35.7	35.9	H-RWQEENYIAYPR-OH [compound 260]	75.9
100	70.7	72.3	38.3	74.8	51.1	H-RWQEEQYIAEPR-OH [compound 266]	72.7
100	83.3	74.5	54.9	56	51.7	H-RWQEEQYIAYPR-OH [compound 265]	66.7
100	76.7	68.2	54.5	59.4	56.1	H-RWQEEQYIFEPR-OH [compound 264]	63.2
100	76.1	49.5	20.3	0.48	0	H-RWQEMGYIFYPRKL-OH [compound 268]	41.9
100	63.2	54.1	35.9	20	11.7	H-RWQEMNYIAYPR-OH [compound 250]	83.0
100	46.7	40.5	28.3	15.8	11.1	H-RWQEMNYIFEPR-OH [compound 249]	81.3
–	–	–	–	–	–	H-RWQEMNYIFYPR-OH [compound 248]	50.4
100	70	45.8	17.2	2.64	0.43	H-WQEMGYIFYPRKL-OH [compound 269]	59.2
100	38.5	16.7	9.17	1.76	0.87	H-WQEMNYIFYP-OH [compound 285]	96.0
